Read-outs that look alike come from different tables or passages of the source.
Tests used:
[1] = test system: LPS-induced TNFα release in whole blood; assay: Inhibition of in vitro LPS-induced TNFα production in whole blood of COPD patients; format: cell-based; settings: Homo sapiens; whole blood of COPD patients (n=7), LPS 50 μg/ml, 22-24 h at 37° C., ELISA
Excerpt: The aim of this study was to compare the in vitro activities of three selective PDE4 inhibitors (compound 1, rolipram which is 4-[3-(cyclopentyloxy)-4-methoxy-phenyl]-2-pyrrolidinone, and cilomilast) at reducing lipopolysaccharide (LPS)-induced TNFα release in whole blood of COPD patients. Thirteen COPD patients, diagnosed according to the ATS guidelines^iv, were included in this study to determine the concentration-effect of LPS on TNF^α production (n=6) and the IC50 values of compound 1, rolipram and cilomilast (n=7).
Blood (15 ml/patient) was collected in heparin tubes and distributed in 96-well microplates (250 μl/well).
After a 30-min incubation at 37° C., 25 μl of increasing concentrations of the compound to test or vehicle were added in different wells. The microplates were incubated at 37° C. for 30 min, and then 25 μl of LPS (E. coli) at 50 μg/ml (stimulated wells) or 25 μl of sterile saline (unstimulated wells) were added. The microplates were incubated 22-24 h at 37° C.
125 μl of the supernatant plasma were transferred gently in sterile 96-well microplates and stored at −80° C. until TNFα assay. The TNFα production was then measured by an ELISA assay.

[2] = single dose of 20 mg; Murdoch et al. 1998; cited from earlier work
[3] = test system: LPS-induced lung neutrophilia; assay: Neutrophilia induced by LPS aerosol in the Wistar rat; format: in vivo; settings: Wistar rats, oral
Experimental: (§1) The model retained to assess the usefulness of the compounds of the invention for the treatment of COPD was a neutrophilia model. Neutrophilia was induced by exposure of rats or mice to a lipopolysaccharide (LPS) aerosol.
The animals were treated with compound 1 or cilomilast when conscious, that was by the oral route.
One hour after the treatment, the rats were placed in a plexiglass box and were given a 200 μg/ml aerosol of LPS (Escherichia coli, serotype O55:B5) for 1 hour. Control rats were not given the LPS aerosol. This control is called ‘sham’ in FIGS. 1 and 2.
Two hours after the exposure to the LPS, the animals were then anaesthetised by intraperitoneal injection of 6% sodium pentobarbital at a rate of 1 ml/kg. A tracheotomy was carried out and a tracheal cannula was inserted.
Using a 5-ml syringe, 3 consecutive washings were carried out with a 5-ml volume of a […] NaCl+EDTA solution (37° C.), in order to recover the cell population present in the lumen of the airways. The fluid which had thus been withdrawn was stored at +4° C. on ice.

[4] = in humans; Torphy et al. 1999; cited from earlier work
[5] = Half-life in humans after single oral doses to healthy volunteers; settings: human, in vivo, single oral doses 1 to 25 mg
Excerpt: Such values indicate that compound 1 may be administered once daily.

[6] = test system: LPS-induced lung neutrophilia; assay: Neutrophilia induced by LPS aerosol in the C57 bl/6 mouse; format: in vivo; settings: oral route, 1 h before LPS aerosol 100 μg/ml; bronchoalveolar washings 24 h after exposure
Experimental: as §1
The animals were treated with compound 1 when conscious, that was by the oral route.
One hour after treatment, the mice were placed in a plexiglass box (at most 25 mice to a box) and were given a 100 μg/ml aerosol of LPS (Escherichia coli, serotype O55:B5) for 1 hour. Control mice were not given the LPS aerosol.
Twenty-four hours after the exposure to the LPS, the animals were then anaesthetised by an intraperitoneal injection of 0.6% sodium pentobarbital at a rate of 15 ml/kg. A tracheotomy was carried out and a tracheal cannula was inserted. […]
The cells contained in the bronchoalveolar washing fluid were counted using a Coulter particle counter. […]
The arithmetic mean and the standard deviation (SD) of the number of neutrophils in the bronchoalveolar washing fluids were calculated for each treatment group. The percentage inhibition was calculated in the following manner: [formula] […]
The 90% confidence interval for the percentage inhibition was to be calculated by the “Delta method” or “Fieller method” ^i, ii & iii (Armitage & al, 1998; Feuerstein & al, 1997; Hubert & al, 1988) if appropriate.

SMILES | IC50 [1] [nM] | side effects [2] | percentage of inhibition of the LPS-induced lung neutrophilia ([3]; 30 mg/kg) [%] | elimination half-life [4] | half-life ([5]; read-out: mean terminal half-life values, range over doses) [h] | half-life ([5]; read-out: terminal half-life, mean over all doses (converted)) [h] | efficiency relative to cilomilast at the same dose ([3]; 10 mg/kg) | percentage of inhibition of the LPS-induced lung neutrophilia ([3]; 10 mg/kg) [%] | inhibition of the LPS-induced lung neutrophilia in mice [6]
COc1ccc([C@]2(C#N)CC[C@@H](C(=O)O)CC2)cc1OC1CCCC1 [cilomilast, cis-4-cyano-4-[3-(cyclopentyloxy)-4-methoxyphenyl]cyclohexane carboxylic acid] | > 10000 | relevant side effects such as nausea and vomiting occurred | 74 | approximately 8 hours | – | – | – | – | –
Nc1cc2c3c(c1)C(c1ccccc1)=N[C@@H](NC(=O)c1cccnc1)C(=O)N3CC2 [compound 1, (3R)N-(9-amino-4-oxo-1-phenyl-3,4,6,7-tetrahydro-[1,4]diazepino[6,7,1-hi]indol-3-yl)-nicotinamide] | 1300 ± 700 | – | 80 | – | 13.9 to 17.1 | 15.4 | twice more efficient than cilomilast | 74 | strongly inhibited
COc1ccc(C2CNC(=O)C2)cc1OC1CCCC1 (stereo not drawn) [rolipram, 4-[3-(cyclopentyloxy)-4-methoxy-phenyl]-2-pyrrolidinone] | 2800 ± 900 | – | – | – | – | – | – | – | –

Reference: patent US6544983B2, “Diazepinoindoles for the treatment of chronic obstructive pulmonary disease” (Pfizer Inc, priority 2000, dated 2003)
